Laboratory results from patent publication US9487749B2 (priority 2009, dated 2016).
Where “and” joins values, the source holds several entries; their conditions need not be identical. Equal entries are not always repeated.

Experiments:
Type in all cases: cell-based
[1] = tested on: Lactobacillus acidophilus; test: Growth of Lactobacillus acidophilus in Acidophilus milk fortified with MSM
Text: (§1) 31, 2013. […] The Acidophilus milk was low fat (Darigold).

[2] = tested on: Acidophilus plus Bifidus milk microorganisms; test: Growth in Acidophilus plus Bifidus milk fortified with MSM; details: A/B milk
Text: as §1

[3] = tested on: Herpes Simplex Virus type 1 (ATCC #VR-260)

Compound: CS(C)(=O)=O [MSM, Methylsulfonylmethane]
- Growth of Lactobacillus acidophilus in Milk fortified with MSM average ([1]; 0.50% MSM, hour 0): 6.98 log
- Log Growth of Lactobacillus acidophilus in Milk fortified with MSM ([1]; 0.50% MSM, hour 8): 9.06 log and 9.00 log
- Growth of Lactobacillus acidophilus in Milk fortified with MSM average ([1]; 0.50% MSM, hour 8): 9.03 log
- Growth of Lactobacillus acidophilus in Milk fortified with MSM average ([1]; 0.50% MSM, hour 24): 9.38 log
- Log Growth of Lactobacillus acidophilus in Milk fortified with MSM ([1]; 0.50% MSM, hour 32): 9.12 log
- Growth of Lactobacillus acidophilus in Milk fortified with MSM average ([1]; 0.50% MSM, hour 32): 9.16 log
- Log Growth of Lactobacillus acidophilus in Milk fortified with MSM ([1]; 0.50% MSM, hour 48): 8.55 log and 8.69 log
- Growth of Lactobacillus acidophilus in Milk fortified with MSM average ([1]; 0.50% MSM, hour 48): 8.62 log
- Log Growth of Lactobacillus acidophilus in Milk fortified with MSM ([1]; 0.50% MSM, hour 56): 8.77 log and 8.69 log
- Growth of Lactobacillus acidophilus in Milk fortified with MSM average ([1]; 0.50% MSM, hour 56): 8.73 log
- Log Growth of Lactobacillus acidophilus in Milk fortified with MSM ([1]; 0.50% MSM, hour 72): 8.56 log and 8.67 log
- Growth of Lactobacillus acidophilus in Milk fortified with MSM average ([1]; 0.50% MSM, hour 72): 8.62 log
- Growth of Lactobacillus acidophilus in Milk fortified with MSM average ([1]; 0.50% MSM, hour 80): 9.72 log
- Growth of Lactobacillus acidophilus in Milk fortified with MSM average ([1]; 0.50% MSM, hour 96): 10.09 log
- Growth of Lactobacillus acidophilus in Milk fortified with MSM average ([1]; 0.50% MSM, hour 104): 9.50 log
- Growth of Lactobacillus acidophilus in Milk fortified with MSM average ([1]; 5.00% MSM, Day 7): 10.71 log
- Growth of Lactobacillus acidophilus in Milk fortified with MSM average ([1]; 5.00% MSM, Day 14): 8.04 log
- Log Growth of Lactobacillus acidophilus in Milk fortified with MSM ([1]; 5% MSM, Day 21): 5.64 log and 5.48 log
- Growth of Lactobacillus acidophilus in Milk fortified with MSM average ([1]; 5.00% MSM, Day 21): 5.56 log
- Log Growth of Lactobacillus acidophilus in Milk fortified with MSM ([1]; 5% MSM, Day 28): 2.52 log
- Growth of Lactobacillus acidophilus in Milk fortified with MSM average ([1]; 5.00% MSM, Day 28): 2.52 log
- Log Growth of Lactobacillus acidophilus in Milk fortified with MSM ([1]; 5% MSM, hour 0): 6.56 log and 6.47 log
- Growth of Lactobacillus acidophilus in Milk fortified with MSM average ([1]; 5.00% MSM, hour 0): 6.52 log
- Growth of Lactobacillus acidophilus in Milk fortified with MSM average ([1]; 5.00% MSM, hour 8): 8.91 log
- Growth of Lactobacillus acidophilus in Milk fortified with MSM average ([1]; 5.00% MSM, hour 24): 9.29 log
- Growth of Lactobacillus acidophilus in Milk fortified with MSM average ([1]; 5.00% MSM, hour 32): 9.26 log
- Log Growth of Lactobacillus acidophilus in Milk fortified with MSM ([1]; 5% MSM, hour 48): 8.78 log and 8.72 log
- Growth of Lactobacillus acidophilus in Milk fortified with MSM average ([1]; 5.00% MSM, hour 48): 8.75 log
- Log Growth of Lactobacillus acidophilus in Milk fortified with MSM ([1]; 5% MSM, hour 56): 8.88 log and 8.7 log
- Growth of Lactobacillus acidophilus in Milk fortified with MSM average ([1]; 5.00% MSM, hour 56): 8.79 log
- Log Growth of Lactobacillus acidophilus in Milk fortified with MSM ([1]; 5% MSM, hour 72): 8.75 log and 8.63 log
- Growth of Lactobacillus acidophilus in Milk fortified with MSM average ([1]; 5.00% MSM, hour 72): 8.69 log
- Growth of Lactobacillus acidophilus in Milk fortified with MSM average ([1]; 5.00% MSM, hour 80): 9.79 log
- Growth of Lactobacillus acidophilus in Milk fortified with MSM average ([1]; 5.00% MSM, hour 96): 10.20 log
- Growth of Lactobacillus acidophilus in Milk fortified with MSM average ([1]; 5.00% MSM, hour 104): 9.56 log
- Growth of Lactobacillus acidophilus in Milk fortified with MSM average ([1]; […] MSM, Day 7): 10.50 log
- Growth of Lactobacillus acidophilus in Milk fortified with MSM average ([1]; […] MSM, Day 14): 7.33 log
- Growth of Lactobacillus acidophilus in Milk fortified with MSM average ([1]; […] MSM, Day 21): 5.465 log
- Growth of Lactobacillus acidophilus in Milk fortified with MSM average ([1]; […] MSM, Day 28): 3.325 log
- Growth of Lactobacillus acidophilus in Milk fortified with MSM average ([1]; […] MSM, hour 0): 6.69 log
- Growth of Lactobacillus acidophilus in Milk fortified with MSM average ([1]; […] MSM, hour 8): 9.02 log
- Log Growth of Lactobacillus acidophilus in Milk fortified with MSM ([1]; […] MSM, hour 24): 9.01 log
- Growth of Lactobacillus acidophilus in Milk fortified with MSM average ([1]; […] MSM, hour 24): 9.13 log
- Growth of Lactobacillus acidophilus in Milk fortified with MSM average ([1]; […] MSM, hour 32): 9.09 log
- Growth of Lactobacillus acidophilus in Milk fortified with MSM average ([1]; […] MSM, hour 48): 8.85 log
- Growth of Lactobacillus acidophilus in Milk fortified with MSM average ([1]; […] MSM, hour 56): 8.76 log
- Growth of Lactobacillus acidophilus in Milk fortified with MSM average ([1]; […] MSM, hour 72): 8.66 log
- Growth of Lactobacillus acidophilus in Milk fortified with MSM average ([1]; […] MSM, hour 80): 9.74 log
- Growth of Lactobacillus acidophilus in Milk fortified with MSM average ([1]; […] MSM, hour 96): 10.25 log
- Growth of Lactobacillus acidophilus in Milk fortified with MSM average ([1]; […] MSM, hour 104): 9.63 log
- log increase in growth, hour 0 to hour 8 ([1]; milk fortified with MSM (all concentrations), minimum): ≥ 1.73 log
- increase over Acidophilus milk growth at Day 14 ([1]; milk fortified with MSM (concentrations not given)): 0.86 logs and 1.3 logs
- Log Growth of Lactobacillus acidophilus in Milk fortified with MSM ([2]; Day 7): 10.42 log
- Log Growth of Lactobacillus acidophilus in Milk fortified with MSM ([2]; Day 21): 5.37 log
- Log Growth of Lactobacillus acidophilus in Milk fortified with MSM ([2]; Day 28): 3.94 log
- Log Growth of Lactobacillus acidophilus in Milk fortified with MSM ([2]; hour 32): 8.87 log
- Log Growth of Lactobacillus acidophilus in Milk fortified with MSM ([2]; hour 48): 8.3 log
- Log Growth of Lactobacillus acidophilus in Milk fortified with MSM ([2]; hour 72): 8.45 log
- Log Growth of Lactobacillus acidophilus in Milk fortified with MSM ([2]; hour 80): 9.82 log
- Average TCID50 [3]: 3.17 log10 and 4.67 log10 and 4.33 log10 and 4.08 log10 and 4.83 log10 and 5.00 log10 and 5.42 log10
- reduction of virus population [3]: more than 1.0 log10
